Numbers after ± are expanded uncertainties.
Key:
[1] = xn = mol fraction of the nth substance listed; conditions: 101 kPa, Liquid, x2 = 0; for viscosity: Capillary tube (Ostwald / Ubbelohde) method; for speed of sound: Sing-around technique in a fixed-path interferometer
[2] = 101 kPa, Liquid; for viscosity: Capillary tube (Ostwald / Ubbelohde) method; for speed of sound: Sing-around technique in a fixed-path interferometer

| viscosity ([1]; 298.15 K) | speed of sound ([1]; 298.15 K) | mass density ([1]; 298.15 K) | speed of sound ([1]; 303.15 K) | mass density ([1]; 303.15 K) | speed of sound ([1]; 308.15 K) | mass density ([1]; 308.15 K) | mass density ([2]; 298.15 K) | viscosity ([2]; 298.15 K) | speed of sound ([2]; 298.15 K) | mass density ([2]; 303.15 K) | speed of sound ([2]; 303.15 K) | mass density ([2]; 308.15 K) | speed of sound ([2]; 308.15 K) | SMILES |
| --- | --- | --- | --- | --- | --- | --- | --- | --- | --- | --- | --- | --- | --- | --- |
| 0.518 ± 0.007 mPa·s | 1172.7 ± 0.8 m/s | 698.58 ± 0.77 kg/m3 | 1152.1 ± 0.8 m/s | 694.497 ± 0.78 kg/m3 | 1131.7 ± 0.8 m/s | 690.416 ± 0.78 kg/m3 |  |  |  |  |  |  |  | CCCCCCCC [octane] + CCCCCCCCO |
|  |  |  |  |  |  |  | 821.813 ± 0.54 kg/m3 | 7.508 ± 0.042 mPa·s | 1348 ± 0.8 m/s | 818.796 ± 0.54 kg/m3 | 1330.8 ± 0.8 m/s | 815.286 ± 0.55 kg/m3 | 1314.1 ± 0.8 m/s | CCCCCCCCO [octan-1-ol] |
| 0.313 ± 0.007 mPa·s | 1077.8 ± 1.2 m/s | 655.072 ± 0.92 kg/m3 | 1055.2 ± 1.2 m/s | 650.369 ± 0.92 kg/m3 | 1032.9 ± 1.1 m/s | 645.767 ± 0.93 kg/m3 |  |  |  |  |  |  |  | CCCCCC [hexane] + CCCCCCCCO |
|  |  |  |  |  |  |  | 655.072 ± 0.92 kg/m3 | 0.313 ± 0.007 mPa·s | 1077.8 ± 1.2 m/s | 650.369 ± 0.92 kg/m3 | 1055.2 ± 1.2 m/s | 645.767 ± 0.93 kg/m3 | 1032.9 ± 1.1 m/s | CCCCCC [hexane] |
|  |  |  |  |  |  |  | 726.806 ± 1.7 kg/m3 | 0.852 ± 0.015 mPa·s | 1234.8 ± 3.1 m/s | 723.042 ± 1.7 kg/m3 | 1215.2 ± 3.1 m/s | 719.23 ± 1.7 kg/m3 | 1195.6 ± 3.1 m/s | CCCCCCCCCC [decane] |
|  |  |  |  |  |  |  | 698.58 ± 0.77 kg/m3 | 0.518 ± 0.007 mPa·s | 1172.7 ± 0.8 m/s | 694.497 ± 0.78 kg/m3 | 1152.1 ± 0.8 m/s | 690.416 ± 0.78 kg/m3 | 1131.7 ± 0.8 m/s | CCCCCCCC [octane] |
| 0.852 ± 0.015 mPa·s | 1234.8 ± 3.1 m/s | 726.806 ± 1.7 kg/m3 | 1215.2 ± 3.1 m/s | 723.042 ± 1.7 kg/m3 | 1195.6 ± 3.1 m/s | 719.23 ± 1.7 kg/m3 |  |  |  |  |  |  |  | CCCCCCCCCC [decane] + CCCCCCCCO |

— the NIST ThermoML archive (doi:10.1016/j.jct.2008.02.005)
